The text below walks through data of ChEMBL document CHEMBL1201862, “PubChem BioAssay data set” (2004).

Some test systems named below: A549; CCRF-CEM; DU-145; PC-3; SK-MEL-28; SW-620; RXF 393; MOLT-4; Hs-578T; HOP-92; K562; LOX IMVI; A498; SN12C; NCI-H460; COLO 205; SNB-75; MCF7; UO-31; UACC-62.
What all share (experiment): NCI tumour cell line growth inhibition, 48 h

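How tested: cells in 96-well plates exposed to compound for 48 hours at five concentrations. GI50 is the concentration that inhibits growth by half.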 Active and inactive are the calls of the source. Cut-off read from the data, not from the text of the source: active = GI50 up to about 1.1 µM and inactive = higher.

For the molecule `CCNC(=O)c1c(O)nc2ccccc2c1O`, the GI50 in the assay with A549 is 55.6 µM (inactive); in the assay with CCRF-CEM, 52.2 µM (inactive); with DU-145, 80.9 µM (inactive); with PC-3, 49.9 µM (inactive); in the assay on SK-MEL-28, > 100 µM (inactive); in the assay on SW-620, 43.1 µM (inactive). Besides, the GI50 in the assay with RXF 393 was 22.1 µM (inactive); with MOLT-4, 42 µM (inactive); with Hs-578T it was 40.5 µM (inactive); with HOP-92, 75.3 µM (inactive); with K562 it was 39.8 µM (inactive); in the assay on LOX IMVI, 51.5 µM (inactive). Further, the GI50 was > 100 µM (inactive) with A498; 67.6 µM (inactive) in the assay on SN12C; 34.9 µM (inactive) with NCI-H460; 56.9 µM (inactive) in the assay on COLO 205; > 100 µM (inactive) with SNB-75; 51.8 µM (inactive) in the assay with MCF7. The GI50 with UO-31 was 73.5 µM (inactive).

`CC(=O)O[C@H]1CC[C@@]2(C)C(=CC[C@@H]3[C@@H]2CC[C@](C)(c2nnc(C)o2)[C@H]3CC#N)C1`: the GI50 in the assay with A549, in the assay on CCRF-CEM, in the assay with DU-145, in the assay with PC-3, in the assay on SW-620 and in the assay with RXF 393 was > 100 µM (inactive) throughout. The GI50 with MOLT-4 was > 100 µM (inactive); in the assay on Hs-578T, 0.0735 µM (active); in the assay with HOP-92, > 100 µM (inactive); in the assay on K562, > 100 µM (inactive); in the assay on LOX IMVI, > 100 µM (inactive); in the assay on A498, > 100 µM (inactive). The GI50 in the assay on SN12C was > 100 µM (inactive); in the assay with UACC-62 it was > 100 µM (inactive); with COLO 205, > 100 µM (inactive); in the assay on SNB-75 it was 51.6 µM (inactive); in the assay on MCF7 it was > 100 µM (inactive); in the assay on UO-31, > 100 µM (inactive).

For the molecule `C[N+]1(C)C/C(=C\C=C\c2ccccc2)C(=O)/C(=C/C=C/c2ccccc2)C1`, the GI50 is 39.8 µM (inactive) in the assay on A549; 1.78 µM (inactive) with CCRF-CEM; 17.2 µM (inactive) in the assay with DU-145; 10.4 µM (inactive) in the assay with PC-3; 3.85 µM (inactive) in the assay on SK-MEL-28; 9.79 µM (inactive) in the assay on SW-620. The GI50 in the assay on RXF 393 was 21.5 µM (inactive); in the assay on MOLT-4 it was 4.06 µM (inactive); with Hs-578T, 4.29 µM (inactive); in the assay on HOP-92, 17.9 µM (inactive); with K562, 4.18 µM (inactive); in the assay on LOX IMVI, 12.2 µM (inactive). In addition, the GI50 is 60.1 µM (inactive) with A498; 7.69 µM (inactive) in the assay on SN12C; 17.1 µM (inactive) in the assay with NCI-H460; 3.46 µM (inactive) in the assay on UACC-62; 0.773 µM (active) with COLO 205; 6.73 µM (inactive) in the assay on SNB-75. Further, the results for the GI50 in the assay with MCF7 and in the assay on UO-31 were 10.2 µM (inactive) and 85.5 µM (inactive), respectively.

As to `O=[N+]([O-])c1cc(C(F)(F)F)ccc1S(=O)(=O)N[C@@H]1CCCC[C@H]1NS(=O)(=O)c1ccc(C(F)(F)F)cc1[N+](=O)[O-]`, the GI50 in the assay with A549 was 4.16 µM (inactive); in the assay with CCRF-CEM, 2.72 µM (inactive); with DU-145 it was 4.22 µM (inactive); in the assay on PC-3 it was 3.11 µM (inactive); with SK-MEL-28 it was 5.55 µM (inactive); in the assay with SW-620, 3.78 µM (inactive). Also, the GI50 in the assay on RXF 393 is 2.45 µM (inactive); with Hs-578T it was 2.48 µM (inactive); in the assay on HOP-92, 1.98 µM (inactive); in the assay with LOX IMVI, 1.56 µM (inactive); in the assay with A498, 5.43 µM (inactive); in the assay with SN12C, 3.45 µM (inactive). The GI50 with NCI-H460 was 3.57 µM (inactive); in the assay with UACC-62, 3.81 µM (inactive); with COLO 205 it was 2.78 µM (inactive); in the assay with SNB-75, 1.83 µM (inactive); in the assay on MCF7 it was 1.72 µM (inactive); with UO-31 it was 3.56 µM (inactive).

For `CCOC(=O)c1nc2cc(C(F)(F)F)ccc2nc1Nc1ccc(Cl)c(Cl)c1`, the GI50 in the assay on A549 was 84.3 µM (inactive); in the assay with CCRF-CEM it was 67.5 µM (inactive); in the assay with DU-145, > 100 µM (inactive); in the assay with PC-3, 75.2 µM (inactive); in the assay on SK-MEL-28 it was > 100 µM (inactive); in the assay with SW-620, 73.3 µM (inactive). The GI50 in the assay on RXF 393 was > 100 µM (inactive); with MOLT-4, > 100 µM (inactive); in the assay on Hs-578T, > 100 µM (inactive); with HOP-92 it was 24.2 µM (inactive); with LOX IMVI it was > 100 µM (inactive); with A498, > 100 µM (inactive). Besides, the GI50 in the assay on SN12C is > 100 µM (inactive); in the assay with NCI-H460, 35.3 µM (inactive); in the assay with UACC-62, > 100 µM (inactive); with COLO 205, > 100 µM (inactive); in the assay on SNB-75, 58.1 µM (inactive); in the assay on MCF7, > 100 µM (inactive). In the assay on UO-31, the GI50 is > 100 µM (inactive).

For the molecule `Nc1nc2c(=O)c3ccccc3sc2s1`, the GI50 is 33.7 µM (inactive) in the assay on A549; 78.3 µM (inactive) in the assay on CCRF-CEM; 68.9 µM (inactive) in the assay on DU-145; 60 µM (inactive) in the assay with PC-3; > 100 µM (inactive) in the assay with SK-MEL-28; > 100 µM (inactive) with SW-620. Also, the GI50 in the assay with RXF 393 was 39.8 µM (inactive); with MOLT-4 it was 47.4 µM (inactive); in the assay on Hs-578T, 43.7 µM (inactive); in the assay with HOP-92, 37.4 µM (inactive); in the assay on K562, 34.8 µM (inactive); with LOX IMVI, 46.1 µM (inactive). For the same molecule, the GI50 in the assay with A498 is 25.4 µM (inactive); in the assay on SN12C it was 84.3 µM (inactive); in the assay with NCI-H460, 35.1 µM (inactive); with UACC-62, 26.6 µM (inactive); in the assay with COLO 205, 96.4 µM (inactive); in the assay with SNB-75, 40.5 µM (inactive). The results for the GI50 in the assay with MCF7 and in the assay on UO-31 were 5.96 µM (inactive) and 35.6 µM (inactive), respectively.

As to `CCC(Nc1ncnc2nc[nH]c12)C(=O)O` (centres undefined), the GI50 with A549, with CCRF-CEM, in the assay with DU-145, with PC-3, in the assay on SK-MEL-28 and with SW-620 was > 100 µM (inactive) each time. In addition, the GI50 with RXF 393, with Hs-578T, with HOP-92, in the assay with K562, in the assay with LOX IMVI and with A498 was > 100 µM (inactive) in each case. Besides, the GI50 in the assay with SN12C was > 100 µM (inactive); in the assay on NCI-H460 it was > 100 µM (inactive); with UACC-62, > 100 µM (inactive); with COLO 205, > 100 µM (inactive); in the assay on SNB-75, 26.2 µM (inactive); in the assay on MCF7 it was > 100 µM (inactive). In addition, the GI50 in the assay on UO-31 is > 100 µM (inactive).

In the case of `Cc1nn(-c2ccccc2)c(C)c1/C=N/N=C1\S/C(=C\c2ccc(Cl)cc2)C(=O)N1c1ccccc1`, the GI50 with A549 is 10.7 µM (inactive); with CCRF-CEM, > 100 µM (inactive); in the assay on DU-145, > 100 µM (inactive); in the assay on PC-3 it was > 100 µM (inactive); in the assay on SK-MEL-28 it was > 100 µM (inactive); in the assay with SW-620 it was 9.2 µM (inactive). The GI50 is 12.6 µM (inactive) in the assay with RXF 393; 14.2 µM (inactive) with MOLT-4; 5.65 µM (inactive) in the assay with Hs-578T; 91 µM (inactive) with HOP-92; 7.91 µM (inactive) in the assay on K562; > 100 µM (inactive) with LOX IMVI. For the same molecule, the GI50 was > 100 µM (inactive) with A498; > 100 µM (inactive) in the assay on SN12C; > 100 µM (inactive) in the assay on NCI-H460; 16.8 µM (inactive) in the assay on UACC-62; > 100 µM (inactive) in the assay with COLO 205; 11.6 µM (inactive) in the assay on SNB-75. Besides, the GI50 in the assay on MCF7 is 17.3 µM (inactive); with UO-31, > 100 µM (inactive).

With `O=C(/C=C/C=C/c1ccccc1)CCc1ccccc1`, the GI50 is > 100 µM (inactive) in the assay on A549; 35.2 µM (inactive) with CCRF-CEM; > 100 µM (inactive) in the assay with DU-145; 83 µM (inactive) with PC-3; > 10 µM (inactive) in the assay on SK-MEL-28; 37.6 µM (inactive) with SW-620. The GI50 in the assay on RXF 393 is > 100 µM (inactive); with MOLT-4, 21 µM (inactive); with Hs-578T it was 75.9 µM (inactive); in the assay on HOP-92, > 100 µM (inactive); in the assay with LOX IMVI, 79.4 µM (inactive); in the assay on A498, > 100 µM (inactive). Besides, the GI50 in the assay with SN12C is > 100 µM (inactive); with UACC-62, > 100 µM (inactive); in the assay on COLO 205 it was > 100 µM (inactive); with SNB-75 it was > 100 µM (inactive); with MCF7 it was > 100 µM (inactive); in the assay on UO-31, 90.6 µM (inactive).

In the case of `C#CCOC(=O)c1ccccc1OC(C)=O`, the GI50 with CCRF-CEM, in the assay with DU-145, with PC-3, in the assay with SW-620, with RXF 393 and in the assay with MOLT-4 was > 100 µM (inactive) each time. For the same molecule, the GI50 with Hs-578T, with HOP-92, in the assay with K562, with LOX IMVI, in the assay with A498 and in the assay on SN12C was > 100 µM (inactive) throughout. The GI50 with NCI-H460, in the assay with UACC-62, with COLO 205, in the assay with SNB-75, in the assay with MCF7 and in the assay on UO-31 was > 100 µM (inactive) throughout.
